The values below come from US9603829B2, “HSP90 inhibitors with modified toxicity” (THE REGENTS OF THE UNIVERSITY OF COLORADO, a body corporate, priority 2011, dated 2017).

Read-outs that look alike come from different tables or passages of the source.

The nature of data set [1]: Glutathione conjugation of benzoquinone ansamycins (HPLC, LC-MS). Format: in vitro ADME. Conditions: 50 μM BA, pH 7.4, room temperature. The method, then:
BA-GSH conjugate formation was analyzed by HPLC at 270 nm and further confirmed by LC-MS.

In the next data set the test system is SHSY-5Y cells. Briefly: MTT growth inhibition assay in SHSY-5Y dopaminergic cells. In kind it is cell-based, human. As to conditions: read-out: SHSY-5Y IC50. The method, then:
The 19-substituted benzoquinone ansamycins were also tested in vitro for their ability to reduce the toxicity of BQAs to SH-SY5Y cells a dopaminergic model system of relevance to neurodegenerative disease. Referring to FIG. 9, toxicity of BQAs in SH-SY-5Y cells was measured using trypan blue exclusion (panel A), MTT growth inhibition assay (panel B) and annexin V/PI staining for apoptosis (panel C). Cells in A and C were treated with BQAs (5 μM) for 16 h; cells in B were treated with BQAs for 4 h then allowed to grow in drug-free medium for 72 h. […] The combination of these two properties are likely to be important to the neuroprotective properties of the 19-substituted BQAs.
Growth inhibition assays (MTT) were conducted in human SHSY-5Y cells following a 4 hr treatment with GA or 19Me-GA. Cell were allowed to grow for 72 hrs following drug treatment. The 19-methyl substituted compounds in all series were minimally toxic (see FIG. 12 for data with geldanamycin, MTT assay, results are expressed as the mean±SD, n=3).

For data set [2], the system named is MiaPaCa2 human pancreatic cancer cells. Briefly: MTT growth inhibition in MiaPaCa2 cells. Format: cell-based. As to conditions: 4 hr treatment, then 72 h growth, MTT; read-out: IC50 MiaPaCa2. The method, then: The inventors also examined the ability of 19 BQAs to inhibit the growth of human pancreatic cancer cell lines (FIG. 16). For growth inhibition studies (MTT) cells were treated with drugs for 4 hr and then allowed to grow for 72 h. For biomarker studies MiaPaCa2 cells were treated with DMAG analogs (5 μM) for 24 hr. 19 BQAs inhibit the growth of human pancreatic cancer cell lines (FIG. 16A, 16B) and induce biomarkers of Hsp90 inhibition (FIG. 16C) using isogenic Panc-1 (NQO1 null) and Panc-1/C5 (NQO1 expressing) cell lines.

The test system of data set [3] is primary mouse hepatocytes. Briefly: Hepatotoxicity in primary mouse hepatocytes (MTT). In kind it is cell-based. As to conditions: 4 hr, confirmed by Trypan Blue and AST leakage. Here is the method:
The inventors next tested the effect of 19-substitution of BQAs on hepatotoxicity in isolated hepatocyte systems. Isolated primary mouse hepatocytes were grown on coated 96-well plates and exposed to BQAs for 4 h after which their survival was determined using the MTT assay.
As described above, a major obstacle in the development of BQA as drugs has been their ability to induce hepatotoxicity in preclinical studies. […] Toxicity was measured using MTT assay and confirmed using Trypan Blue and AST leakage. The data shown in FIG. 19 were generated using MTT analysis but similar readouts were obtained using either trypan blue exclusion or leakage of AST from hepatocytes.

The conditions of data set [4]: Phase I / phase 1 clinical trials; cited from earlier work.
For data set [5], the system named is MDA468/NQ16 breast cancer cells. Briefly: MTT growth inhibition in isogenic MDA468/NQ16 and MDA468 cells. Conditions: NQO1-rich vs NQO1-null isogenic cells. Format: cell-based, human. Here is the method: The 19-substituted benzoquinone ansamycins were also tested in vitro for their ability to inhibit growth similar to DMAG in human breast cancer cells (FIG. 10). MDA468/NQ16 breast cancer cells were treated with 19-substituted DMAG analogs for 4 hours, after which drug-containing media was removed and cells were allowed to grow for an additional 72 h. Cell viability was determined using the MTT assay.
(§1) The ability of 19-substituted BQAs to induce growth inhibition was measured by MTT in isogenic MDA468 (null NQO1) and MDA468/NQ16 (high NQO1) cells. […] Biomarkers of Hsp90 inhibition (Raf-1, AKT degradation and Hsp70 induction) were more pronounced in MDA468/NQ16 cells compared to MDA468 cells following treatment with 19-substituted DMAG analogs.

In data set [6] the test system is Hsp90 (Raf-1, AKT degradation and Hsp70 induction). Briefly: Biomarkers of Hsp90 inhibition in MDA468/NQ16 cells. Format: cell-based, human. Here is the method: as §1
[7] abbreviates: 4 hr treatment, then 72 hrs growth, MTT.

For `CO[C@H]1/C=C\C=C(/C)C(=O)NC2=CC(=O)C(NCCN3CCCC3)=C(C[C@@H](C)C[C@H](OC)[C@H](O)[C@@H](C)/C=C(\C)[C@@H]1OC(N)=O)C2=O` [17AEP-GA, 17-demethoxy-17-[[2-(pyrrolidin-1-yl)ethyl]amino]-geldanamycin], the “fraction conjugated with glutathione” value in data set [1] (5 mM glutathione, within 10 h) was “about 90%”.

For the compound `CO[C@H]1/C=C\C=C(/C)C(=O)NC2=CC(=O)C(NCCN(C)C)=C(C[C@@H](C)C[C@H](OC)[C@H](O)[C@@H](C)/C=C(\C)[C@@H]1OC(N)=O)C2=O` [DMAG, 17-demethoxy-17-[[2-(dimethylamino)ethyl]amino]-geldanamycin, reference compound], the IC50 in the data set on SHSY-5Y cells (setting [7]) was found to be 9.4 µM; in data set [2], 0.13 ± 0.01 µM. Besides, the 17-DMAG-SG conjugate formed entry in data set [1] (5 mM reduced glutathione, within 4 h) was “approximately 47 μM”. Also, in data set [3], the hepatotoxicity entry was “significant hepatotoxicity”. The “hepatotoxicity / toxicity in clinical trials” value (shortened to “hepatotoxicity / toxicity”) in data set [4] was “significant toxicities”.

Turning to `COC1=C2C[C@@H](C)C[C@H](OC)[C@H](O)[C@@H](C)/C=C(\C)[C@H](OC(N)=O)[C@@H](OC)/C=C\C=C(/C)C(=O)NC(=CC1=O)C2=O` [GA, geldanamycin, reference compound], in the data set with SHSY-5Y cells (Homo sapiens, SH-SY5Y, 4 hr treatment, then 72 hrs growth, MTT), the IC50 came to 0.133 µM. In data set [4], the “hepatotoxicity / toxicity” value is “unacceptable hepatotoxicity”.

`C=CCNC1=C2C[C@@H](C)C[C@H](OC)[C@H](O)[C@@H](C)/C=C(\C)[C@H](OC(N)=O)[C@@H](OC)/C=C\C=C(/C)C(=O)NC(=C(C)C1=O)C2=O` [19Me-17AAG, (4E,6Z,8S,9S,10E,12S,13R,14S,16R)-19-(Allylamino)-13-hydroxy-8,14-dimethoxy-4,10,12,16,21-pentamethyl-3,20,22-trioxo-2-azabicyclo[16.3.1]docosa-1(21),4,6,10,18-pentaen-9-yl carbamate]: in the data set on SHSY-5Y cells (Homo sapiens, SH-SY5Y), the half-inhibitory concentration (IC50) was more than 20 µM.

Turning to `C=CCNC1=C2C[C@@H](C)C[C@H](OC)[C@H](O)[C@@H](C)/C=C(\C)[C@H](OC(N)=O)[C@@H](OC)/C=C\C=C(/C)C(=O)NC(=CC1=O)C2=O` [17AAG, 17-demethoxy-17-(2-propenylamino)-geldanamycin, reference compound], the IC50 with SHSY-5Y cells (setting [7]) stood at 16.2 µM. In addition, the “decrease in IC50 in MDA468/NQ16 cells compared to MDA468 cells” value in data set [5] is given as “greater than 66 fold”. In addition, in data set [6], the “effect on markers of Hsp90 inhibition (Hsp70 induction and Raf-1 degradation) in MDA468/NQ16 compared to MDA468 cells” value is “greater effect on markers of Hsp90 inhibition”. The “hepatotoxicity / toxicity” value in data set [4] was “dose-limiting toxicity”.

Take `C=CCNC1=C2C[C@@H](C)C[C@H](OC)[C@H](O)[C@@H](C)/C=C(\C)[C@H](OC(N)=O)[C@@H](OC)/C=C\C=C(/C)C(=O)NC(=C(c3ccccc3)C1=O)C2=O` [19Ph-17AAG, (4E,6Z,8S,9S,10E,12S,13R,14S,16R)-19-(Allylamino)-13-hydroxy-8,14-dimethoxy-4,10,12,16-tetramethyl-3,20,22-trioxo-21-phenyl-2-azabicyclo[16.3.1]docosa-1(21),4,6,10,18-pentaen-9-yl carbamate]: the IC50 in the data set on SHSY-5Y cells (Homo sapiens, SH-SY5Y) is more than 20 µM.

With `COC1=C2C[C@@H](C)C[C@H](OC)[C@H](O)[C@@H](C)/C=C(\C)[C@H](OC(N)=O)[C@@H](OC)/C=C\C=C(/C)C(=O)NC(=C(C)C1=O)C2=O` [19Me-GA, (4E,6Z,8S,9S,10E,12S,13R,14S,16R)-13-Hydroxy-8,14,19-trimethoxy-,10,12,16,21-pentamethyl-3,20,22-trioxo-2-azabicyclo[16.3.1]docosa-1(21),4,6,10,18-pentaen-9-yl carbamate], in the data set on SHSY-5Y cells (Homo sapiens, SH-SY5Y), the IC50 is more than 10 µM.
